Source: article PMC4603696, “Discovery and characterization of novel small-molecule inhibitors targeting nicotinamide phosphoribosyltransferase” (Scientific Reports, 2015)
Where “and” joins values, the source holds several entries; their conditions need not be identical. Identical values can stand only once. Like-named read-outs stand apart in the source and are kept apart here.

Key:
HCT116 cells = assay: SRB assay in HCT116; type: cell-based; conditions: Homo sapiens, HCT-116; HCT116, SRB, 10-fold concentration gradient; read-out: anti-proliferation IC50, initial screen
Method: (§1) Sulfor hod am ine B p rotei n st ai ning (SRB) assay
(§2) Cell pr oliferat ion was eva lua ted by sul for hod amine B pr ot ein st aini ng (SRB) assa y10-12.
(§3) Briefly, cel ls were se ede d int o 96-well pl ates, cul tur ed overni ght , and trea ted with correspond ing com poun ds for 72 h. Cells were the n fixe d with 10% trichl or oa cetic aci d and st ained with sul for hoda mine B (Sigm a). Sul for hoda mine B in the cells was di sso lved in 10 mmol/L Tris-HCl and was measured at 515 nm usi ng a multiw ell spect ropho tometer (VERSA max, Mol ecul ar Devi ces, Sunnyva le, CA). The inhi bi tion rat e on cell pr olif eratio n was cal culated for each well as (A515contr ol cells-A 515tr eated cells)/A515contr ol cells×100 % (A515:
(§4) OD va lue at 515 nm ). The averag e IC50 va lue s were de termine d by Logit method from at leas t t hr eei nde pe nde nt test s.

HepG2 cells [1] = assay: Cell counting kit-8 (CCK-8) cell viability assay in HepG2; type: cell-based, human; conditions: HepG2, 48 hours treatment, read-out: CCK-8 assay in HepG2: IC50
Method: (§5) Cellc ount ing k it-8 (CCK-8) assa y
Cell vi ability was de termine d by ou r previ ous method9 usi ng the Cell Counting Kit-8 (CCK -8, Dojindo, Ja pa n). In hu man he pa tocellu lar carcinom a cell line HepG 2, cells were seede d in 96-well plate and starve d for ove r 12 h with se rum-free DMEM at 60~ 70% conf lue nc y, the n trea ted wit h com pounds or ve hicle for 24 h to 72 h accor ding to expe riment requi rement s. […]
(§6) 10 μl CCK-8 sol ution was adde d to the cul ture medium and inc ub ated at 37 °C for 1 h. Th e absor banc e at 450 nm (A450) was de tected by a pl ate reade r. Each e xperi ment w as carr ied out i n t riplic ate i n thr ee r eplic ate w ells.

NAMPT [2] = target: T1, NAMPT (Homo sapiens, UniProt P43490); assay: Cellular thermal shift assay (CETSA / […]) in HepG2 cell lysate; type: binding; set-up: endogenous in cells; host or cells: HepG2; conditions: for CETSA melting curve shift of NAMPT in cell lysate: HepG2 cell lysate, 100 μM
T1 sequence (P43490 whole entry): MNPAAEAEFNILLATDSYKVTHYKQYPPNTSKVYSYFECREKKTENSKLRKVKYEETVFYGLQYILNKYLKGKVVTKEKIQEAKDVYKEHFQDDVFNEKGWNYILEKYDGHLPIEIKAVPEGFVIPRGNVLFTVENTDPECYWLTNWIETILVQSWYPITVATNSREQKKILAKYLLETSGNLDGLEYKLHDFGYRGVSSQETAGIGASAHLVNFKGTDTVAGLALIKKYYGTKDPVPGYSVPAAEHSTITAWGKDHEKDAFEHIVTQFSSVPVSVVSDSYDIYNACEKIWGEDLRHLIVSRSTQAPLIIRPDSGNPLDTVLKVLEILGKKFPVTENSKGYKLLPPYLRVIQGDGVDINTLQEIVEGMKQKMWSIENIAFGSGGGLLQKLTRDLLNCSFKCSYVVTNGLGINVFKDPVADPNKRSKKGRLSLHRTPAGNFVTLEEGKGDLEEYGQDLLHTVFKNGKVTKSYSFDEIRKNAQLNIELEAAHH

NAMPT I309Y mutant = target: T2, NAMPT I309Y mutant (Homo sapiens, UniProt P43490, I309Y); assay: NAMPT activity assay, I309Y mutant; type: biochemical; conditions: for IC50: same condition as wild-type, read-out: IC50 against I309Y mutant
T2 construct: His-tag; made in house; host or cells: E. coli BL21-CodonPlus (DE3)-RIL
T2 sequence (P43490 whole entry I309Y): as the sequence (P43490 whole entry) above, with I309Y counted along it

NAMPT [3] = target: T1, NAMPT; assay: Cellular thermal shift assay (CETSA / […]) in intact HepG2 cells; type: cell-based; set-up: endogenous in cells; host or cells: HepG2; conditions: for ITDRFCETSA of NAMPT in cell lysate versus intact cells: lysate value relative to intact cells; for CETSA target binding of NAMPT in intact cell: intact HepG2 cells, 10 μM, 3 h
A549 cells = assay: SRB assay in A549; type: cell-based, human; conditions: Homo sapiens; A549, SRB, 10-fold concentration gradient; read-out: anti-proliferation IC50, initial screen
Method: as §1, §2, §3, §4

NAMPT A244S mutant = target: T3, NAMPT A244S mutant (Homo sapiens, UniProt P43490, A244S); assay: NAMPT activity assay, A244S mutant; type: biochemical; conditions: for IC50: same condition as wild-type, read-out: IC50 against A244S mutant
T3 construct: His-tag; made in house; host or cells: E. coli BL21-CodonPlus (DE3)-RIL
T3 sequence (P43490 whole entry A244S): as the sequence (P43490 whole entry) above, with A244S counted along it

NAMPT H191A mutant = target: T4, NAMPT H191A mutant (Homo sapiens, UniProt P43490, H191A); assay: NAMPT activity assay, H191A mutant; type: biochemical; conditions: for IC50: same condition as wild-type, read-out: IC50 against H191A mutant
T4 construct: His-tag; made in house; host or cells: E. coli BL21-CodonPlus (DE3)-RIL
T4 sequence (P43490 whole entry H191A): as the sequence (P43490 whole entry) above, with H191A counted along it

Huh7-C cells = assay: CCK-8 assay in stem-like human hepatoma cell line Huh7-C; type: cell-based; conditions: Huh7-C, treated 60 h, read-out: CCK-8 assay in Huh7-C: IC50
Method: as §5
Cell vi ability was de termine d by ou r previ ous method9 usi ng the Cell Counting Kit-8 (CCK -8, […]
as §6

NAMPT [4] = target: T1, NAMPT; assay: NAMPT activity assay by fluorescence of NMN derivative (HTS system), IC50 determination; type: biochemical; set-up: His-tag; made in house; host or cells: E. coli BL21-CodonPlus (DE3)-RIL
HepG2 cells [5] = assay: Sulforhodamine B protein staining (SRB) assay in HepG2; type: cell-based, human; conditions: Homo sapiens
Method: as §1, §2, §3, §4

[6] = recombinant human NAMPT, mean ± s.e., read-out: NAMPT IC50
[7] = wild type, run beside the mutants, read-out: IC50 against wild-type NAMPT (mutagenesis study)
[8] = HepG2, 72 h, HepG2, second test, 2-fold concentration gradient, 72 hours, read-out: SRB assay in HepG2: IC50
[9] = HepG2, HepG2, SRB, 10-fold concentration gradient, read-out: anti-proliferation IC50, initial screen

| SMILES | IC50 (HCT116 cells) | IC50 (A549 cells) | IC50 (NAMPT [4]; [6]) | IC50 (HepG2 cells [5]; [8]) | IC50 (HepG2 cells [5]; [9]) | further results |
| --- | --- | --- | --- | --- | --- | --- |
| CC(C)(C)OC(=O)N1CCN(S(=O)(=O)c2ccc(NC(=S)NCc3cccnc3)cc2)CC1 [MS1] | < 5 µM | < 5 µM | 0.0217 µM | ~3 µM | < 5 µM | IC50 (HepG2 cells [1]): 0.326 µM; IC50 (HepG2 cells [1]; Homo sapiens, HepG2, 48 h): 0.326 ± 0.0733 µM; CETSA melting curve shift of NAMPT in cell lysate (NAMPT [2]): obvious right shifts; change in IC50/potency versus wild-type NAMPT, I309Y (NAMPT I309Y mutant): 2 to 3 fold; IC50 (NAMPT I309Y mutant): 0.0583 ± 0.0023 µM; ITDRFCETSA of NAMPT in cell lysate versus intact cells (NAMPT [3]; 62 °C): approximately 100 fold; CETSA target binding of NAMPT in intact cell (NAMPT [3]): directly bound with NAMPT; change in IC50/potency versus wild-type NAMPT, A244S (NAMPT A244S mutant): 2 to 3 fold; IC50 (NAMPT A244S mutant): 0.0361 ± 0.00411 µM; change in IC50 versus wild-type NAMPT, H191A (NAMPT H191A mutant): no change; IC50 (NAMPT H191A mutant): 0.0253 ± 0.00236 µM; IC50 (Huh7-C cells): 0.308 ± 0.0322 µM; IC50 (NAMPT [4]; [7]): 0.0246 ± 0.00265 µM |
| O=C(/C=C/c1cccnc1)NCCCCC1CCN(C(=O)c2ccccc2)CC1 [FK866, reference compound] | – | – | – | 0.05 µM | – | – |
| O=S(=O)(c1ccc(NC(=S)NCc2cccnc2)cc1)N1CCN(Cc2ccc(C(F)(F)F)cc2)CC1 [MS34] | < 5 µM | < 5 µM | 0.0237 ± 0.0078 µM | ~3 µM | < 5 µM | IC50 (HepG2 cells [1]; Homo sapiens, HepG2, 48 h): 0.615 ± 0.0424 µM; CETSA melting curve shift of NAMPT in cell lysate (NAMPT [2]): obvious right shifts; change in IC50/potency versus wild-type NAMPT, I309Y (NAMPT I309Y mutant): 2 to 3 fold; IC50 (NAMPT I309Y mutant): 0.0576 ± 0.00371 µM; CETSA target binding of NAMPT in intact cell (NAMPT [3]): directly bound with NAMPT; change in IC50/potency versus wild-type NAMPT, A244S (NAMPT A244S mutant): 2 to 3 fold; IC50 (NAMPT A244S mutant): 0.0377 ± 0.0019 µM; change in IC50 versus wild-type NAMPT, H191A (NAMPT H191A mutant): no change; IC50 (NAMPT H191A mutant): 0.0252 ± 0.00242 µM; IC50 (Huh7-C cells): 0.514 ± 0.0833 µM; IC50 (NAMPT [4]; [7]): 0.0248 ± 0.00187 µM |
| O=[N+]([O-])c1ccc(CN2CCN(S(=O)(=O)c3ccc(NC(=S)NCc4cccnc4)cc3)CC2)cc1 [MS37] | < 5 µM | < 5 µM | 0.0197 ± 0.0021 µM | 4.65 ± 1.03 µM | < 5 µM | – |
| O=S(=O)(c1ccc(NC(=S)NCc2cccnc2)cc1)N1CCN(Cc2ccc(OC(F)(F)F)cc2)CC1 [MS35] | < 5 µM | < 5 µM | 0.0369 ± 0.0046 µM | 4.83 ± 0.13 µM | < 5 µM | – |
| N#CN=C(NCc1cccnc1)Nc1ccc(S(=O)(=O)N2CCCC2)cc1 [MS21] | – | – | 0.577 ± 0.0387 µM | – | – | – |
| CCOC(=S)Nc1ccc(C(=O)N2CCCCC2)cc1 [MS20] | – | – | – | – | – | inhibition on NAMPT activity (in words) (NAMPT [4]): no NAMPT inhibition; IC50 (NAMPT [4]; recombinant human NAMPT, values given in μM, read-out: NAMPT IC50): > 150 µM |
| O=C(NCc1ccc(S(=O)(=O)NCc2cc(F)cc3c2OCOC3)s1)c1ccc(Cl)cc1 [compound 4162] | – | – | 0.777 ± 0.084 µM | – | – | – |
| O=S(=O)(c1ccc(NC(=S)NCc2cccnc2)cc1)N1CCN(Cc2c(F)cccc2F)CC1 [MS23] | < 5 µM | < 5 µM | 0.0099 ± 0.0012 µM | > 10 µM | < 5 µM | – |
| CCCCc1ccc(CN2CCN(S(=O)(=O)c3ccc(NC(=S)NCc4cccnc4)cc3)CC2)cc1 [MS36] | – | – | 0.0798 ± 0.0061 µM | – | – | – |

Continued, in another order:

| IC50 (HCT116 cells) | IC50 (A549 cells) | IC50 (NAMPT [4]; [6]) | IC50 (HepG2 cells [5]; [8]) | IC50 (HepG2 cells [5]; [9]) | SMILES | further results |
| --- | --- | --- | --- | --- | --- | --- |
| < 5 µM | < 5 µM | 0.0295 ± 0.0008 µM | 8.94 ± 0.45 µM | < 5 µM | O=S(=O)(c1ccc(NC(=S)NCc2cccnc2)cc1)N1CCN(Cc2ccc3ccccc3c2)CC1 [MS33] | – |
| – | – | 0.0191 ± 0.002 µM | – | – | O=S(=O)(c1ccc(NC(=S)NCc2cccnc2)cc1)N1CCN(Cc2ccco2)CC1 [MS42] | – |
| – | – | 0.0157 ± 0.0025 µM | – | – | O=S(=O)(c1ccc(NC(=S)NCc2cccnc2)cc1)N1CCN(Cc2ccccc2Cl)CC1 [MS30] | – |
| < 5 µM | < 5 µM | 0.0242 ± 0.0016 µM | 4.86 ± 0.15 µM | < 5 µM | O=S(=O)(c1ccc(NC(=S)NCc2cccnc2)cc1)N1CCN(Cc2ccc(Br)cc2)CC1 [MS32] | – |
| – | – | 0.0124 ± 0.0009 µM | – | – | Cc1ccccc1CN1CCN(S(=O)(=O)c2ccc(NC(=S)NCc3cccnc3)cc2)CC1 [MS27] | – |
| – | – | 0.0105 ± 0.002 µM | – | – | Cc1ccc(CN2CCN(S(=O)(=O)c3ccc(NC(=S)NCc4cccnc4)cc3)CC2)cc1 [MS26] | – |
| – | – | 0.0098 ± 0.0009 µM | – | – | O=S(=O)(c1ccc(NC(=S)NCc2cccnc2)cc1)N1CCN(Cc2cccnc2)CC1 [MS45] | – |
| < 5 µM | < 5 µM | 0.0137 ± 0.0016 µM | 5.81 ± 0.71 µM | < 5 µM | O=S(=O)(c1ccc(NC(=S)NCc2cccnc2)cc1)N1CCN(Cc2ccc(Cl)cc2)CC1 [MS31] | – |
| < 5 µM | < 5 µM | 0.0168 ± 0.0015 µM | > 10 µM | < 5 µM | Cc1cccc(CN2CCN(S(=O)(=O)c3ccc(NC(=S)NCc4cccnc4)cc3)CC2)c1 [MS28] | – |
| – | – | 0.00093 µM and 0.0009 µM | > 10 µM | – | O=S(=O)(c1ccc(NC(=S)NCc2cccnc2)cc1)N1CCN(Cc2ccccc2)CC1 [MS7, 1-(4-((4-benzylpiperazin-1-yl)sulfonyl)phenyl)-3-(pyridin-3-ylmethyl)thiourea] | IC50 (HepG2 cells [1]): 1.27 µM; IC50 (HepG2 cells [1]; Homo sapiens, HepG2, 48 h): 1.27 ± 0.158 µM; CETSA melting curve shift of NAMPT in cell lysate (NAMPT [2]): large thermal shift; ITDRFCETSA for NAMPT in lysate, compared with MS1 (NAMPT [2]; cell lysate, 62 °C): shifted to the left; ITDRFCETSA of NAMPT in cell lysate versus intact cells (NAMPT [3]; 62 °C): no significant difference; ITDRFCETSA for NAMPT in intact cell, difference to MS1 (shifted to the right) (NAMPT [3]; intact cell, 62 °C): no less than 10 fold; IC50 (Huh7-C cells): 1.06 ± 0.248 µM |
| – | – | 0.0487 ± 0.0045 µM | – | – | O=S(=O)(c1ccc(NC(=S)NCc2cccnc2)cc1)N1CCN(Cc2ccoc2)CC1 [MS40] | – |
